Test results reported in patent US20240032533A1 (priority 2020, published 2024).
Like-named read-outs stand apart in the source and are kept apart here.

Columns and labels:
Phytophthora infestans = experiment: microbe, parasite or virus in culture; type: cell-based; conditions: for inhibition at 0.05 ppm: read-out: Activity (%) 0.05 ppm; for inhibition at 0.1 ppm: read-out: Activity (%) 0.1 ppm; for inhibition at 0.5 ppm: read-out: Activity (%) 0.5 ppm; for inhibition at 1 ppm: read-out: Activity (%) 1 ppm; for inhibition at 5 ppm: read-out: Activity (%) 5 ppm; for inhibition at 10 ppm: read-out: Activity (%) 10 ppm; for inhibition at 50 ppm: read-out: Activity (%) 50 ppm
[1] = system: Plasmopara viticola strain PvS; experiment: Grapevine downy mildew, preventive treatment of detached grapevine leaves / leaf discs; type: in vivo; conditions: 2267 ppm, preventive 24 h, 7 dpi
Venturia inaequalis = experiment: microbe, parasite or virus in culture; type: cell-based
Zymoseptoria tritici = experiment: microbe, parasite or virus in culture; type: cell-based; conditions: for inhibition at 0.05 ppm / inhibition at 0.1 ppm / inhibition at 0.5 ppm / inhibition at 1 ppm: Zymoseptoria tritici
[2] = system: Phytophthora infestans strain Pi96; type: in vivo; conditions: for Disease Severity Index (%) 3 dpi / Disease Severity Index (%) 7 dpi / Disease Severity Index (%) 5 dpi / Disease Severity Index (%) 10 dpi: preventive 24 h
[3] = Water solubility as a function of pH; type: physicochemical; conditions: increases at pH values below 7.0 and above 7.0

| SMILES | inhibition at 0.05 ppm (Phytophthora infestans) [%] | inhibition at 0.1 ppm (Phytophthora infestans) [%] | inhibition at 0.5 ppm (Phytophthora infestans) [%] | inhibition at 1 ppm (Phytophthora infestans) [%] | inhibition at 5 ppm (Phytophthora infestans) [%] | inhibition at 10 ppm (Phytophthora infestans) [%] | inhibition at 50 ppm (Phytophthora infestans) [%] | inhibition at 0.1 ppm (Venturia inaequalis) [%] | inhibition at 0.5 ppm (Venturia inaequalis) [%] | inhibition at 1 ppm (Venturia inaequalis) [%] | inhibition at 0.05 ppm (Zymoseptoria tritici; 0.05 ppm) [%] | inhibition at 0.1 ppm (Zymoseptoria tritici) [%] | inhibition at 0.5 ppm (Zymoseptoria tritici; 0.5 ppm) [%] | inhibition at 1 ppm (Zymoseptoria tritici; 1 ppm) [%] | Activity (%) 0.1 ppm (Zymoseptoria tritici) [%] | further results |
| --- | --- | --- | --- | --- | --- | --- | --- | --- | --- | --- | --- | --- | --- | --- | --- | --- |
| CCCCCCCCCCCCNC(=N)N [Dodine] | 12.5 | 12 | 59.4 | 81.9 | 93.8 | 95.5 | 98.9 | 83.2 | 98.2 | 97.3 | 5.2 | 21.4 | 101 | 98.1 |  | control towards Downy Mildew [1]: full control |
| N#Cc1c(Cl)c(Cl)c(Cl)c(C#N)c1Cl [Chlorothalonil] | -11.8 | -5.8 | -2 | 15.3 | 99.2 | 98.5 | 100 | 34.3 | 88.8 | 97.4 | 4.3 | 10 | 17.9 | 54.7 |  |  |
| CCCCCCCCCCCCCCCCCC[S+](C)C.[I-] [1-5, octadecyl dimethyl sulfonium iodide] |  |  |  |  |  |  |  |  |  |  |  |  |  |  | 2.7 | Activity (%) 0.05 ppm (Zymoseptoria tritici; 0.05 ppm): 6.4%; Activity (%) 0.5 ppm (Zymoseptoria tritici; 0.5 ppm): 11.2%; Activity (%) 1 ppm (Zymoseptoria tritici; 1 ppm): 92.7% |
| CCCCCCCCCCCCCCCCCC[S+](C)C.[Cl-] [ODS-Cl, octadecyl dimethyl sulfonium chloride] | 6.2 | 12.6 | 12.5 | 12.3 | 14.1 | 29.3 | 98.4 | 14.3 | 97.4 | 97.2 | 6.5 |  | 11.5 | 91 | 8.8 | Disease Severity Index (%) 3 dpi ([2]; 50 ppm): 8.7%; Disease Severity Index (%) 7 dpi ([2]; 50 ppm): 40.0%; Disease Severity Index (%) 3 dpi ([2]; 100 ppm): 5.5%; Disease Severity Index (%) 3 dpi ([2]; 500 ppm): 0.0%; Disease Severity Index (%) 5 dpi ([2]; 500 ppm): 0.0%; Disease Severity Index (%) 7 dpi ([2]; 500 ppm): 0.0%; Disease Severity Index (%) 10 dpi ([2]; 500 ppm): 0.0%; control of the disease (late blight) ([2]; 1000 ppm): full control; Disease Severity Index (%) 3 dpi ([2]; 1000 ppm): 0.0%; Disease Severity Index (%) 5 dpi ([2]; 1000 ppm): 0.0%; Disease Severity Index (%) 7 dpi ([2]; 1000 ppm): 0.0%; Disease Severity Index (%) 10 dpi ([2]; 1000 ppm): 0.0% |
| CCCCCCCCCCCCCCCCCC[S+](C)C.[Cl-] [octadecyl dimethyl sulfonium chloride] |  |  |  |  |  |  |  |  |  |  |  |  |  |  |  | water solubility, pH dependency [3]: minimum around pH 7.0 |
